{"source": "patent US11674962B2", "about": "“Therapeutic and diagnostic methods for cancer” (Genentech, Inc., priority 2017, dated 2023)", "key": {"[1]": {"tested_on": "locally advanced or metastatic non-small cell lung cancer (NSCLC)", "assay": "OAK phase III clinical trial (NCT02008227): atezolizumab vs docetaxel, outcomes by bTMB score and PD-L1 IHC", "assay_type": "in vivo, human", "experimental": "A blood-based assay was used to evaluate the association between clinical response to treatment with atezolizumab (MPDL3280A) and blood tumor mutational burden (bTMB) score in patients with non-small cell lung cancer (NSCLC) enrolled in two clinical trials, a phase II clinical trial, POPLAR (Clinical Trial ID No.: NCT01903993), and a phase III clinical trial, OAK (Clinical Trial ID No.: NCT02008227), in which atezolizumab was administered as a monotherapy.\nPre-treatment blood samples from patients with NSCLC who were enrolled in the POPLAR and/or the OAK studies, in which atezolizumab was administered as a monotherapy, were evaluated for bTMB score and/or maximum somatic allele frequency (MSAF).\nThe OAK (Clinical Trial ID No.: NCT02008227) patient population evaluated for bTMB score consisted of 583 patients. Patients were eligible for enrollment in the OAK study if they had locally advanced or metastatic (e.g., stage IIIB, stage IV, or recurrent) NSCLC; disease progression during or following treatment with a prior platinum-containing regimen for locally advanced, unresectable/inoperable, or metastatic NSCLC, or disease recurrence within 6 months of treatment with a platinum-based adjuvant/neoadjuvant regimen; measurable disease, as defined by RECIST v1.1; and an ECOG performance status of 0 or 1. Participants were randomized to receive either atezolizumab at a dose of 1200 mg intravenously every three weeks or docetaxel 75 mg per square meter (mg/m^2) intravenously every three weeks. Treatment with atezolizumab could be continued as long as participants were experiencing clinical benefit, i.e., in the absence of unacceptable toxicity or symptomatic deterioration attributed to disease progression.\nAnalysis of bTMB was performed retrospectively. Progression-free survival (PFS) was defined as the time between date of randomization and date of first documented disease progression as assessed by the investigator using RECIST v.1.1 or death from any cause, whichever occurred first. Overall survival (OS) was defined as the time between the date of randomization until death due to any cause. Treatment arms were compared for OS and PFS individually using a univariate Cox regression model without stratification in the biomarker evaluable-population (BEP) and their subgroups or using a stratified (by randomization stratification factors) Cox model in the ITT population. No multiplicity correction was applied to p-values or confidence intervals (CI). Kaplan-Meier methodology was used to estimate median OS and PFS and construct survival curves.\nIn the OAK ITT population (N=850), 797 samples were available for analysis. Of these samples, 13 were removed for sample contamination >1%; 42 were removed for median exon coverage <800×; and 100 were removed for low MSAF<1%.\nThe OAK BEP (N=642) included 59 patients with EGFR mutation or ALK rearrangement, and 583 without known alterations.\nTo identify somatic mutations and calculate a bTMB score, whole blood samples obtained from each patient (collected in EDTA or Streck tubes) were processed through a series of spins to isolate plasma, from which cell free DNA (cfDNA) was extracted for sequencing analysis. Specifically, at least 20 ng purified cfDNA was used for library construction. Next-generation sequencing libraries using fragment barcodes and hybrid capture were constructed to analyze and sequence a pre-determined set of 394 genes that covered approximately 1.125 Mb of the exome. Specifically, purified libraries were hybrid captured using a 394-gene bait set and then further purified, pooled and loaded on an ILLUMINA® HISEQ® 4000 sequencing system. Sequenced libraries were aligned and sorted. In order to accurately call variants at low allele frequencies and minimize artifacts from sequencing, PCR, or DNA damage-related errors, sequenced libraries were processed by a cfDNA computational pipeline that corrected errors via the use of fragment barcodes. […]"}, "[2]": {"tested_on": "non-small cell lung cancer (NSCLC)", "assay": "Combined POPLAR and OAK studies: PFS by bTMB score", "assay_type": "in vivo, human", "conditions": "combined BEP of POPLAR and OAK (n=775), reference bTMB score of 14, atezolizumab vs docetaxel", "from_the_text": "FIG. 7A is a graph showing the Kaplan-Meier Curve of PFS of the combined BEP of patients (nBEP=775 patients; HR=0.62) in the atezolizumab treatment arm (black) and docetaxel control arm (gray) of the POPLAR and OAK studies, each arm stratified according to bTMB score. Patients with a bTMB score that is greater than, or equal to, a reference bTMB score of 14 are indicated by solid lines (Dx+) and patients with a bTMB that is lower than a reference bTMB score of 14 are indicated by dashed lines (Dx−). […] The time point for each column corresponds to the times shown along the x-axis of the above graph. Patient samples having an MSAF less than 1% were excluded from analysis. Sequence coverage was greater than, or equal to, 800. […]\nAnalysis of bTMB was performed retrospectively. Progression-free survival (PFS) was defined as the time between date of randomization and date of first documented disease progression as assessed by the investigator using RECIST v.1.1 or death from any cause, whichever occurred first. […]"}, "[3]": {"conditions": "OAK BEP with valid bTMB and PD-L1 IHC results, bTMB ≥16, n=156"}, "[4]": {"conditions": "OAK, bTMB score subgroup ≥10 (251 patients), atezolizumab vs docetaxel"}, "[5]": {"conditions": "OAK, bTMB score subgroup ≥16 (158 patients), atezolizumab vs docetaxel"}, "[6]": {"conditions": "OAK, bTMB score subgroup ≥20 (105 patients), atezolizumab vs docetaxel"}}}
{"substance": "atezolizumab", "values": [{"measurement": "OS HR (95% CI)", "setting": "[1]; OAK BEP with valid bTMB and PD-L1 IHC results, TC3 or IC3, n=103", "result": "0.44 (0.27-0.71)"}, {"measurement": "OS HR (95% CI)", "setting": "[1]; [3]", "result": "0.64 (0.44-0.93)"}, {"measurement": "PFS HR (95% CI)", "setting": "[1]; [3]", "result": "0.64 (0.46, 0.91)"}, {"measurement": "OS HR (95% CI)", "setting": "[1]; OAK, BEP (n = 583), atezolizumab vs docetaxel", "result": 0.64}, {"measurement": "PFS HR (95% CI)", "setting": "[1]; OAK, IHC− (complementary to TC1/2/3) and bTMB ≥16, n=93", "result": 0.78}, {"measurement": "PFS HR (95% CI)", "setting": "[1]; OAK, IHC− (complementary to TC1/2/3 or IC1/2/3) and bTMB ≥16, n=53", "result": 0.68}, {"measurement": "PFS HR (95% CI)", "setting": "[1]; OAK, IHC− (complementary to TC2/3) and bTMB ≥16, n=110", "result": 0.69}, {"measurement": "PFS HR (95% CI)", "setting": "[1]; OAK, IHC− (complementary to TC2/3 or IC2/3) and bTMB ≥16, n=94", "result": 0.65}, {"measurement": "PFS HR (95% CI)", "setting": "[1]; OAK, IHC− (complementary to TC3 or IC3) and bTMB ≥16, n=126", "result": 0.70}, {"measurement": "OS HR (95% CI)", "setting": "[1]; OAK, ITT (n = 850), atezolizumab vs docetaxel", "result": 0.73}, {"measurement": "PFS HR (95% CI)", "setting": "[1]; OAK, PD-L1 IHC TC0 and IC0 (bTMB evaluable), n=250", "result": 0.95}, {"measurement": "PFS HR (95% CI)", "setting": "[1]; OAK, PD-L1 IHC TC1/2/3, IHC+ (bTMB evaluable), n=192", "result": 0.65}, {"measurement": "PFS HR (95% CI)", "setting": "[1]; OAK, PD-L1 IHC TC1/2/3 or IC1/2/3, IHC+ (bTMB evaluable), n=328", "result": 0.83}, {"measurement": "PFS HR (95% CI)", "setting": "[1]; OAK, PD-L1 IHC TC2/3, IHC+ (bTMB evaluable), n=150", "result": 0.65}, {"measurement": "PFS HR (95% CI)", "setting": "[1]; OAK, PD-L1 IHC TC2/3 or IC2/3, IHC+ (bTMB evaluable), n=200", "result": 0.71}, {"measurement": "PFS HR (95% CI)", "setting": "[1]; OAK, TC0 and IC0 and bTMB <16, n=197", "result": 1.03}, {"measurement": "PFS HR (95% CI)", "setting": "[1]; OAK, TC0 and IC0 and bTMB ≥16, n=53", "result": 0.68}, {"measurement": "PFS HR (95% CI)", "setting": "[1]; OAK, TC1/2/3 and bTMB <16, n=129", "result": 0.72}, {"measurement": "PFS HR (95% CI)", "setting": "[1]; OAK, TC1/2/3 and bTMB ≥16, n=63", "result": 0.55}, {"measurement": "PFS HR (95% CI)", "setting": "[1]; OAK, TC1/2/3 or IC1/2/3 and bTMB <16, n=225", "result": 0.94}, {"measurement": "PFS HR (95% CI)", "setting": "[1]; OAK, TC1/2/3 or IC1/2/3 and bTMB ≥16, n=103", "result": 0.65}, {"measurement": "PFS HR (95% CI)", "setting": "[1]; OAK, TC2/3 and bTMB <16, n=106", "result": 0.70}, {"measurement": "PFS HR (95% CI)", "setting": "[1]; OAK, TC2/3 and bTMB ≥16, n=44", "result": 0.55}, {"measurement": "PFS HR (95% CI)", "setting": "[1]; OAK, TC2/3 or IC2/3 and bTMB <16, n=140", "result": 0.73}, {"measurement": "PFS HR (95% CI)", "setting": "[1]; OAK, TC2/3 or IC2/3 and bTMB ≥16, n=60", "result": 0.65}, {"measurement": "PFS HR (95% CI)", "setting": "[1]; OAK, TC3 or IC3 and bTMB <16, n=73", "result": 0.71}, {"measurement": "OS HR", "setting": "[1]; [4]", "result": 0.69}, {"measurement": "PFS HR", "setting": "[1]; [4]", "result": 0.73}, {"measurement": "OS HR", "setting": "[1]; [5]", "result": 0.64}, {"measurement": "PFS HR", "setting": "[1]; [5]", "result": 0.65}, {"measurement": "OS HR", "setting": "[1]; [6]", "result": 0.65}, {"measurement": "PFS HR", "setting": "[1]; [6]", "result": 0.61}, {"measurement": "median OS", "setting": "[1]; OAK, bTMB≥16, per treatment arm", "result": 13.5, "unit": "months"}, {"measurement": "best overall response rate", "setting": "[1]; OAK, bTMB≥16 patients, per treatment arm", "result": 21, "unit": "%"}, {"measurement": "PFS HR", "setting": "[1]; OAK, reference bTMB score of 14 (Dx+, n=188), atezolizumab vs docetaxel", "result": 0.68}, {"measurement": "PFS HR", "setting": "[1]; OAK, reference bTMB score of 18 (Dx+, n=132), atezolizumab vs docetaxel", "result": 0.66}, {"measurement": "PFS HR", "setting": "[2]", "result": 0.62}]}
